Results published in PubChem BioAssay AID2060898 (Molecular Pharmacology Branch, DTP, NCI, 2025).

System: 616215-338-R-J1-PDC complex spheroid viability
Test: Anticancer human tumor 616215-338-R-J1-PDC patient-derived colon adenocarcinoma cell line growth inhibition [RAS]
Details: for IC50: curve of first compound; for viability, T/C: stronger effect = lower value; active means viability on the fitted dose curve at most 10% of control; inactive means the rest
Outline: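 Agents were tested in combination matrices in half-log decrements from a top concentration at or near clinical Cmax (10 microM if undetermined). Targets were multi-cell spheroids of tumour lines plus HUVEC and MSC stromal cells.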

[1] = second compound 0.000949 µM, first compound 0.0316 µM
[2] = second compound 0.000949 µM, first compound 0.1 µM
[3] = second compound 0.000949 µM, first compound 0.316 µM
[4] = second compound 0.000949 µM, first compound 1 µM
[5] = second compound 0.003 µM, first compound 0.0316 µM
[6] = second compound 0.003 µM, first compound 0.1 µM
[7] = second compound 0.003 µM, first compound 0.316 µM
[8] = second compound 0.003 µM, first compound 1 µM
[9] = second compound 0.00949 µM, first compound 0.0316 µM
[10] = second compound 0.00949 µM, first compound 0.1 µM
[11] = second compound 0.00949 µM, first compound 0.316 µM
[12] = second compound 0.00949 µM, first compound 1 µM
[13] = second compound 0.03 µM, first compound 0.0316 µM
[14] = second compound 0.03 µM, first compound 0.1 µM
[15] = second compound 0.03 µM, first compound 0.316 µM
[16] = second compound 0.03 µM, first compound 1 µM
[17] = second compound 0.0949 µM, first compound 0.0316 µM
[18] = second compound 0.0949 µM, first compound 0.1 µM
[19] = second compound 0.0949 µM, first compound 0.316 µM
[20] = second compound 0.0949 µM, first compound 1 µM
[21] = second compound 0.3 µM, first compound 0.0316 µM
[22] = second compound 0.3 µM, first compound 0.1 µM
[23] = second compound 0.3 µM, first compound 0.316 µM
[24] = second compound 0.3 µM, first compound 1 µM
[25] = second compound 0.000949 µM, first compound 3.16 µM
[26] = second compound 0.000949 µM, first compound 10 µM
[27] = second compound 0.003 µM, first compound 3.16 µM
[28] = second compound 0.003 µM, first compound 10 µM
[29] = second compound 0.00949 µM, first compound 3.16 µM
[30] = second compound 0.00949 µM, first compound 10 µM
[31] = second compound 0.03 µM, first compound 3.16 µM
[32] = second compound 0.03 µM, first compound 10 µM
[33] = second compound 0.0949 µM, first compound 3.16 µM
[34] = second compound 0.0949 µM, first compound 10 µM
[35] = second compound 0.3 µM, first compound 3.16 µM
[36] = second compound 0.3 µM, first compound 10 µM
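Further: spheroids exposed to agents for seven days before viability readout.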
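Wherever viability, T/C is given: 100% = DMSO vehicle control viability.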

CCN1CCN(Cc2ccc(Nc3ncc(F)c(-c4cc(F)c5nc(C)n(C(C)C)c5c4)n3)nc2)CC1 + CCn1c(-c2cc(N3CCN(C)CC3)cnc2C(C)OC)c2c3cc(ccc31)-c1csc(n1)CC(NC(=O)C1CC1C)C(=O)N1CCCC(N1)C(=O)OCC(C)(C)C2
0.112 µM: IC50 (second compound 0.00949 µM)
< 0.00316 µM: IC50 (second compound 0.03 µM) | IC50 (second compound 0.0949 µM) | IC50 (second compound 0.3 µM)
inactive: viability, T/C (second compound 0.000949 µM, first compound 0.00316 µM) 102% | viability, T/C (second compound 0.000949 µM, first compound 0.01 µM) 108% | viability, T/C [1] 110% | viability, T/C [2] 123% | viability, T/C [3] 130% | viability, T/C [4] 57.2% | viability, T/C (second compound 0.003 µM, first compound 0.00316 µM) 104% | viability, T/C (second compound 0.003 µM, first compound 0.01 µM) 112% | viability, T/C [5] 111% | viability, T/C [6] 120% | viability, T/C [7] 75.3% | viability, T/C [8] 38.4% | viability, T/C (second compound 0.00949 µM, first compound 0.00316 µM) 82.2% | viability, T/C (second compound 0.00949 µM, first compound 0.01 µM) 64% | viability, T/C [9] 59.9% | viability, T/C [10] 51.3% | viability, T/C [11] 49.5% | viability, T/C [12] 26.6% | viability, T/C (second compound 0.03 µM, first compound 0.00316 µM) 51% | viability, T/C (second compound 0.03 µM, first compound 0.01 µM) 38.1% | viability, T/C [13] 39.4% | viability, T/C [14] 32.5% | viability, T/C [15] 33.4% | viability, T/C [16] 27.5% | viability, T/C (second compound 0.0949 µM, first compound 0.00316 µM) 33.2% | viability, T/C (second compound 0.0949 µM, first compound 0.01 µM) 32.3% | viability, T/C [17] 26.7% | viability, T/C [18] 25.8% | viability, T/C [19] 34.5% | viability, T/C [20] 29.8% | viability, T/C (second compound 0.3 µM, first compound 0.00316 µM) 34.5% | viability, T/C (second compound 0.3 µM, first compound 0.01 µM) 32.2% | viability, T/C [21] 30.3% | viability, T/C [22] 33.1% | viability, T/C [23] 35.9% | viability, T/C [24] 25.3%
0.695 µM: IC50 (second compound 0.003 µM)
> 1 µM: IC50 (second compound 0.000949 µM)

C[C@@H](NC(=O)c1ncnc(N)c1Cl)c1ncc(C(=O)Nc2cc(C(F)(F)F)c(Cl)cn2)s1 + CCn1c(-c2cc(N3CCN(C)CC3)cnc2C(C)OC)c2c3cc(ccc31)-c1csc(n1)CC(NC(=O)C1CC1C)C(=O)N1CCCC(N1)C(=O)OCC(C)(C)C2
8.75 µM: IC50 (second compound 0.000949 µM)
1.57 µM: IC50 (second compound 0.00949 µM)
6.94 µM: IC50 (second compound 0.003 µM)
< 0.0316 µM: IC50 (second compound 0.0949 µM) | IC50 (second compound 0.3 µM)
inactive: viability, T/C [1] 102% | viability, T/C [2] 104% | viability, T/C [3] 117% | viability, T/C [4] 105% | viability, T/C [25] 96.3% | viability, T/C [26] 43.9% | viability, T/C [5] 114% | viability, T/C [6] 129% | viability, T/C [7] 102% | viability, T/C [8] 87.2% | viability, T/C [27] 66.2% | viability, T/C [28] 42.6% | viability, T/C [9] 95.3% | viability, T/C [10] 78% | viability, T/C [11] 72.5% | viability, T/C [12] 61% | viability, T/C [29] 35.8% | viability, T/C [30] 21.4% | viability, T/C [13] 58.9% | viability, T/C [14] 62.2% | viability, T/C [15] 42.3% | viability, T/C [16] 41.1% | viability, T/C [31] 30% | viability, T/C [32] 25.1% | viability, T/C [17] 41.9% | viability, T/C [18] 57.1% | viability, T/C [19] 38.5% | viability, T/C [20] 33.2% | viability, T/C [33] 23.2% | viability, T/C [34] 16.6% | viability, T/C [21] 36.3% | viability, T/C [22] 35.6% | viability, T/C [23] 39% | viability, T/C [24] 33.7% | viability, T/C [35] 22.6% | viability, T/C [36] 13.2%
0.243 µM: IC50 (second compound 0.03 µM)

CC1(O)CCCC1n1c(=O)c(C(F)F)cc2cnc(NC3CCN(S(C)(=O)=O)CC3)nc21 (stereo unspecified) + CCn1c(-c2cc(N3CCN(C)CC3)cnc2C(C)OC)c2c3cc(ccc31)-c1csc(n1)CC(NC(=O)C1CC1C)C(=O)N1CCCC(N1)C(=O)OCC(C)(C)C2
active: viability, T/C [26] 2% | viability, T/C [30] 2.73%
0.199 µM: IC50 (second compound 0.003 µM)
inactive: viability, T/C [1] 122% | viability, T/C [2] 111% | viability, T/C [3] 54.4% | viability, T/C [4] 47.8% | viability, T/C [25] 46.6% | viability, T/C [5] 113% | viability, T/C [6] 65.1% | viability, T/C [7] 30.5% | viability, T/C [8] 36.8% | viability, T/C [27] 38.9% | viability, T/C [28] 4.05% | viability, T/C [9] 49.9% | viability, T/C [10] 51.1% | viability, T/C [11] 29.7% | viability, T/C [12] 23.9% | viability, T/C [29] 31.9% | viability, T/C [13] 47.4% | viability, T/C [14] 28% | viability, T/C [15] 22.7% | viability, T/C [16] 22.2% | viability, T/C [31] 36.3% | viability, T/C [32] 2.37% | viability, T/C [17] 35% | viability, T/C [18] 27.4% | viability, T/C [19] 21.3% | viability, T/C [20] 22.1% | viability, T/C [33] 28.7% | viability, T/C [34] 2.08% | viability, T/C [21] 31% | viability, T/C [22] 32% | viability, T/C [23] 16.4% | viability, T/C [24] 30.3% | viability, T/C [35] 29.7% | viability, T/C [36] 4.15%
< 0.0316 µM: IC50 (second compound 0.03 µM) | IC50 (second compound 0.0949 µM) | IC50 (second compound 0.3 µM)
0.0374 µM: IC50 (second compound 0.00949 µM)
1.13 µM: IC50 (second compound 0.000949 µM)
